Measured values: article PMC8553373 (The Journal of Biological Chemistry, 2021)
Entries after “also recorded” stand apart in the source; their conditions may differ. Where two headings read alike, the source gives them in different places.

Columns and labels:
Vero e6 cells = settings: Vero e6, highest 50 μM concentration point
[1] = target: wild-type Nsp9COV19 as substrate of Nsp12COV19 NiRAN domain (Severe acute respiratory syndrome coronavirus 2, UniProt P0DTD1); format: biochemical; settings: for Nsp9COV19 Cy3-modification, % of the signal of DMSO-only control reactions: 500 μM compound, 15 μM Nsp9COV19, 1 μM Nsp12COV19, triplicate
SARS-CoV-2 [2] = format: cell-based
Vero 81 cells = settings: Vero 81, highest 50 μM concentration point
SARS-CoV-2 [3] = settings: cited from earlier work
Nsp9COV19 = Nsp9COV19 (Severe acute respiratory syndrome coronavirus 2, UniProt P0DTD1); set-up: species or system SARS-CoV-2; settings: native MS; binding ratios after incubation with 50 μM of each compound

| Compound | effect on cell proliferation (MTT) (Calu-3 cells) | effect on cell proliferation (MTT) (Vero e6 cells) | Nsp9COV19 Cy3-modification, % of the signal of DMSO-only control reactions [1] [%] | inhibition of UMPylation reaction (in words) ([1]; UMPylation assays, discussion) | viral titer following SARS-CoV-2 infection (SARS-CoV-2 [2]) | viral titer following SARS-CoV-2 infection (SARS-CoV-2 [2]; Calu-3 cells, 15 μM, after 24 h) | viral titer following SARS-CoV-2 infection (SARS-CoV-2 [2]; Calu-3 cells, 15 μM, later time points (48, 72 h)) | effect on cell proliferation (MTT) (Vero 81 cells) | SARS-CoV-2 replication in in vitro cellular assays (SARS-CoV-2 [3]) | relative Nsp9COV19 binding / affinity (in words) (Nsp9COV19) |
| --- | --- | --- | --- | --- | --- | --- | --- | --- | --- | --- |
| C=C1C(=O)[C@]23[C@H](O)[C@H]1CC[C@H]2[C@@]12CO[C@]3(O)[C@@H](O)[C@@H]1C(C)(C)CC[C@@H]2O [Compound 1, Oridonin] | no effect on cell proliferation detected | a degree of reduced proliferation | 20 ± 6 | significant levels of inhibition | reduce viral tite at all time points | approximately fivefold reduced | not maintained at later time points | a degree of reduced proliferation | inhibit SARS-CoV-2 replication |  |
| C=C1C(=O)[C@]23[C@H](O)[C@H]1CC[C@H]2[C@@]12CO[C@@]3(O)[C@@H](O)[C@@H]1[C@](C)(COC(C)=O)CC[C@H]2O [Compound 3, Xerophilusin G] |  |  |  |  |  |  |  |  |  | significantly reduced binding response; also recorded: abrogated binding completely |
| C=C1C(=O)[C@@]23[C@H](O)C[C@@H]4C(C)(C)CC[C@H](O)[C@@]4(CO)[C@@H]2CC[C@@H]1[C@H]3O [Compound 6, Kamebakaurin] |  |  | ~66 |  |  |  |  |  |  | some ability to cocomplex with Nsp9COV19 is retained |
